Results on five substances are retold here after US20080108545A1, “Peptide Nucleic Acid Conjugates and Uses Thereof” (UNIVERSITY OF OTAGO, priority 2003, published 2008).

For series [1], the system named is PAX2 mRNA. Kind of series: Down regulation of PAX2 protein expression (western blot) in P388 cells. The conditions noted are these: 1 μM; for PAX2 protein expression: over 4 days. The series is classed as cell-based, mouse. (In general: Immunoblotting shows a protein as a band on a membrane.)
Description: Rabbit anti-PAX2 polyclonal antibody (Zymed) diluted 1:1000 in TBS, 0.1% fat free milk powder, 0.1% Tween-20 was used for PAX-2 detection following overnight incubation with the membrane. After 3×10 min washes in TBS, 0.1% Tween-20, horseradish peroxidase conjugated goat antirabbit IgG (1:10,000, Biorad) was used as a secondary antibody. To detect biotin, horse radish peroxidase conjugated extravidin (1:3,000, Sigma) was used. In both cases secondary antibody binding was carried out for 1 h at room temperature, followed by 3×10 min washes in TBS and visualized by chemiluminescence using a Pierce Super Signal R chemiluminescence substrate with Kodak X-OMAT™ AR imaging film.
For series [2], the system named is P388 leukemia cancer cells. Kind of series: General cell proliferation of treated P388 cells. The format is cell-based, mouse. Conditions: 1 μM. An excerpt: To investigate the biological effects of the anti-PAX2 TPP-fluPNA conjugate we used a mouse cell line that highly expresses the PAX2 protein. […] This is most likely due to the absence of the cation that effectively delivers the PNA to the cells.

For series [3], the system named is HNF4α pre-mRNA. In words: RT-PCR of HNF4α mRNA, exon 9 skipping in BNL-CL2 liver cells. The series is classed as cell-based, mouse. Here is the method: A mouse liver cell line, BNL-CL2, was grown at 37° C. and 5% CO2 in humidified atmosphere in Dulbecco's Modified Eagle's Medium supplemented with 10% inactivated FBS, 100 units.mL−1 penicillin, and 100 μg.mL−1 streptomycin, but without sodium pyruvate. To culture the cells with PNA, cells were seeded into a 96-well-plate, followed 16 h later by addition of 1 μM TPP-fluPNA alone or in an aqueous solution of 150 μM Chloroquine, and cultured for another 70 h. Images were acquired using a Zeiss inverted confocal microscope with 488 nm excitation wavelength light for tracking the TPP-fluPNA. Mitochondria specific dye MitoTracker Red CMXRos was added into cultured medium 2 h before taking confocal images using 578 nm excitation wavelength light.
Total RNA was extracted from cells cultured with either fluoresceinated or non-fluoresceinated TPP-PNA, or with PNA dissolved in 150 μM Chloroquine, or with medium controls for 24 h or 72 h. The concentration of extracted RNA was quantified using a NanoDrop spectrophotometer, and 1 μg of total RNA was reverse transcribed into cDNA using Invitrogen SuperScript III and random primers. […]. […]

Series [4] has as its system human fibroblasts. Kind of series: Confocal immunofluorescent microscopy of fixed fibroblasts. The series is classed as cell-based. Conditions: 1 μM, 30 min, 1 h and up to 4 h. Here is the method:
For immunocytochemistry trypsinised human fibroblasts (5,000 cells per well) were plated onto 13 mm diameter glass coverslips in 24 well plates overnight. Following incubation for 4 h at 37° C. with 1 μM TPP-PNA conjugates, cells were fixed with 4% paraformaldehyde (PFH) in TBS for 30 min, washed with TBS and incubated with 10% FCS/0.1% Triton X-100/TBS (TBST) for 10 min. The IgG fraction of anti-triphenylphosphonium serum (1:500) was diluted in TBST, then added and incubated overnight at 4° C. The IgG fraction of preimmune serum was used as a control. After washing with TBS (3×5 min) the cells were incubated with anti-rabbit IgG Oregon green fluorophore-conjugated secondary antibody diluted 1:100 in TBS for 15 min in the dark. The cells were washed in TBS and incubated for another 15 min with streptavidin conjugated CY3 (1:200, Molecular Probes) in the dark, to detect biotin. Cells were then washed in TBS, mounted in DABCO/PVA medium (15 g PVA, 15 g 1,4-diazabicyclo (2,2,2) octane in 30% glucerol in 0.1 M Tris, pH 8.5) and mounted onto coverslips. […]
The localisation of TPP-PNA conjugate within human fibroblasts was also determined by fixing cells that had been incubated with TPP-PNA, PNA or without any additions for up to 4 h and visualising the localisation of the PNA by confocal immunofluorescent microscopy (FIG. 6). […]

Series [5] relates to P388 cells. Kind of series: Gel/blot detection of PNA and phosphonium in fractions of conjugate-treated P388 cells. The series is classed as cell-based, mouse. The conditions noted are these: after treatment with TPP-PNA, FIG. 5D. Here is the method:
Cells (143B, human fibroblasts, COS-7, P388 and IMCD) were grown at 37° C. and 5% CO2 in humidified atmosphere in Dulbecco's modified Eagle's medium supplemented with 10% inactivated foetal calf serum (FCS). All cell culture media contained 100 units.mL^−1 penicillin, and 100 μg.mL^−1 streptomycin. Protein was quantitated by the bicinchoninic acid assay. Cells were incubated with 1 μM TPP-PNA or with PNA alone for the indicated times. The disulfide bond in the TPP-PNA is stable in the oxidizing extracellular environment but is labile in the reducing cytoplasmic mulieu (FIG. 1).
For conjugate detection, 143B cell lysates treated with TPP-PNA conjugates (˜5 nmol) in 20 μL loading buffer (50 mM Tris, 4% SDS, 12% glycerol, 2% 2-mercaptoethanol, 0.01% coomassie brilliant blue) were separated on 18.5% Tris-tricine gels using a BioRad Mini Protean system (Schagger and von Jagow, 1987). For PAX-2 detection, P388 and IMCD cell lysates in loading buffer were resolved on 12.5% Tris-glycine gels (Laemmli, 1970). […]
The P388 cells were treated as described before, the lysates were resolved on Tris-tricine gels and the TPP-fluPNA conjugates were detected using a GelDoc fluorescence imager. […]

For “TPP-fluPNA(PAX-2): Fluoroscein-XX-TTCACACCCCCGTGCC-X-Cys-CO2H PNA targeting PAX2 mRNA, disulfide linked to thiobutyltriphenylphosphonium (all peptide nucleic acid (PNA); 5' fluorescein via linkers, 3' linker-Cys disulfide-linked to triphenylphosphonium)”, in series [1], the “Duration of inhibition of PAX2 expression” value was 4 days and the PAX2 protein expression entry is “significant inhibition of PAX2 expression”. In series [2], the General cell proliferation result is recorded as “did not affect general cell proliferation”.
On to “TPP-lysPNA(HNF4-α): Lys-GTCCCAGACGGT-Cys-COOH PNA targeting mouse HNF4α mRNA, conjugated with TBTP”, for which the “Exon 9-skipped splice variant RT-PCR product” value in series [3] (1 μM in cell culture media for 70 h, no transfection reagent) was “A 352 bp RT-PCR product was observed”; in series [3] (transfected using chloroquine), “A 352 bp RT-PCR product was observed”.
As to “Biotin-XX-GTTGGCTCTCT-X-Cys-CO2H [bioPNA]”, in series [4], the “Uptake of unconjugated PNA” value is given as “uptake (red) only after 4 h”.
Consider thiobutyltriphenylphosphonium [TBTP], for which the “Localisation of phosphonium cation, anti-phosphonium serum” value in series [5] is recorded as “detected in the mitochondrial fractions”.
As to “Fluoroscein-XX-TTCACACCCCCGTGCC-X-Cys-CO2H (5' fluorescein via linkers, 3' linker and cysteine, further chemistry not given here) [unmodified anti-PAX2 PNA, unconjugated fluoroscein-tagged PNA oligomer targeting human and mouse PAX2 mRNA, reference compound]”, the PAX2 protein expression entry in series [1] was “did not decrease PAX2 protein levels”.
